Test results taken from the supplement of paper PMC11616607.

Experiments:
Assay in all cases: drug sensitivity score (DSS) from 5-point dose-response viability curve (DSS (area-under-curve based score)); higher = more sensitive (stronger growth inhibition or killing); extreme values may be limits of the assay
Conditions in all cases: exposure time: 72 h; concentration range: 5 concentrations over 10,000-fold range
HOSE1C = system: HOSE1C
How it was run: (§1)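 Each cell line and drug received a drug sensitivity score from Breeze software, where higher means more sensitive. Zero stands for no response. Scores came from CellTiter-Glo viability readings of ovarian cancer and normal ovarian cells, 1,500 per well in 384-well plates, after 3 days at 37°C, 5% CO2 with drugs at five concentrations over a 10,000-fold range.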

OVCAR8 = system: OVCAR8
How it was run: as §1

CAOV3 = system: CAOV3
How it was run: as §1

COV318 = system: COV318
How it was run: as §1

OVCAR4 = system: OVCAR4
How it was run: as §1

Kuramochi = system: Kuramochi
How it was run: as §1

COV362 = system: COV362
How it was run: as §1

JHOS2 = system: JHOS2
How it was run: as §1

OVCAR5 = system: OVCAR5
How it was run: as §1

HOSE2C = system: HOSE2C
How it was run: as §1

OV90 = system: OV90
How it was run: as §1

Ovsaho = system: Ovsaho
How it was run: as §1

SMILES	drug sensitivity score (HOSE1C)	drug sensitivity score (OVCAR8)	drug sensitivity score (CAOV3)	drug sensitivity score (COV318)	drug sensitivity score (OVCAR4)	drug sensitivity score (Kuramochi)	drug sensitivity score (COV362)	drug sensitivity score (JHOS2)	drug sensitivity score (OVCAR5)	drug sensitivity score (HOSE2C)	drug sensitivity score (OV90)	drug sensitivity score (Ovsaho)
C[C@H](Nc1ncnc2[nH]cnc12)c1cc2ccc(F)cc2nc1-c1ccccn1 [AMG319]	0	0	0	0.1	0.7	1.1	0	0	0	0	0	1.2
COCCOc1cnc2ccn([C@H](C)c3nnc4c(F)cc(-c5cnn(C)c5)cn34)c(=O)c2c1 [AMG-337]	0	0	0	0	0	0	0	0	0	0	0	0
CC1CCC(n2c3cnccc3c3cnc(Nc4ccc5c(n4)CCN(C(=O)CO)C5)nc32)CC1 (stereo not given) [AMG-925]	0	0	0	0	0	0.1	0	0.5	2.5	0	0	0.1
CC(C)[C@H](C(=O)Nc1ccc(C(=O)NO)cc1)c1ccccc1 [AR-42]	21.1	16.8	9.9	7.5	7.2	9.5	2.9	7.8	16.5	16.9	12.8	9
Cc1sc2c(c1C)C(c1ccc(Cl)cc1)=N[C@@H](CC(=O)Nc1ccc(OCCOCCOCCOCCNc3cccc4c3C(=O)N(C3CCC(=O)NC3=O)C4=O)cc1)c1nnc(C)n1-2 (stereo not given in full) [ARV-825]	17.3	15.5	5.4	5.2	8.2	9.9	1.5	4.6	7.9	7.9	6.7	10
COc1cc(N2CCC(N3CCN(C)CC3)CC2)ccc1Nc1ncnc(Nc2ccccc2S(=O)(=O)C(C)C)n1 [ASP3026]	3.4	4.3	6.6	2.9	4.3	4	3.3	4.1	8.2	6.4	5.2	4.7
O=C(NC1CCNCC1)c1n[nH]cc1NC(=O)c1c(Cl)cccc1Cl [AT7519]	16.6	15.5	13.9	6.2	9.3	9.3	12	18	13.5	8	14.2	8.9
O=C(Nc1c[nH]nc1-c1nc2ccc(CN3CCOCC3)cc2[nH]1)NC1CC1 [AT9283]	2.4	3.1	16.9	1.1	6.8	3.5	4.4	3.5	4.6	7.4	2.6	5.2
CC[C@H](CC#N)OC(=O)N[C@@H](C)c1cccc(NC(=O)Nc2ccc(-c3cnco3)c(OC)c2)c1 [AVN944]	25	11.1	10.9	9.4	7	8	3.3	9.6	13.6	15.8	12.7	9.5
COc1cc(N2CCN(C)CC2)ccc1Nc1nccc(-c2cn(C)c3cnccc23)n1 [AZ191]	1	2.2	0	4.1	0.6	1.4	2.2	4.4	2	1.9	5.9	1.6
COc1cc(OC2CCN(C)CC2)ccc1Nc1ncc2c(n1)n(C1CCCC1)c(=O)n2C [AZ 3146]	0.9	4.6	3.6	2.7	1.5	3.9	0.8	2.3	6.2	2.4	4.8	4.7
CN(C)CCCOc1ccc(-c2ccc3ncc4c(c3c2)n(C2CCOCC2)c(=O)n4C)cn1 [AZD0156]	1	0	1.2	0	0	0.2	0	0	1.4	0	1.1	3.2
N[C@@H]1CCCN(c2c(/C=C3\SC(=O)NC3=O)cccc2-c2ccccc2)C1 [AZD1208]	0.2	0.1	0	1.1	0	1.7	0	0.3	1.4	0	0.3	3.5
Cc1cc(Nc2nc(N[C@@H](C)c3ncc(F)cn3)ncc2Cl)[nH]n1 [AZD1480]	0	0	0	0	0.5	0	0	0	0.5	2.8	0	0.7
COc1cc2ncnc(Nc3cccc(Cl)c3F)c2cc1OC(=O)N1CCN(C)C[C@H]1C [AZD3759]	0	0	3.5	0	0	0	0	0.2	0.2	0	0	0
